The values below come from ChEMBL document CHEMBL2016517, “3D Pharmacophore Model-Assisted Discovery of Novel CDC7 Inhibitors” (ACS Med Chem Lett, 2011).

What is called IC50 is the midpoint of a concentration-inhibition curve.

Chain of CDC7/DBF4 (Cell division cycle 7-related protein kinase/Activator of S phase kinase) (Q9UBU7 whole entry): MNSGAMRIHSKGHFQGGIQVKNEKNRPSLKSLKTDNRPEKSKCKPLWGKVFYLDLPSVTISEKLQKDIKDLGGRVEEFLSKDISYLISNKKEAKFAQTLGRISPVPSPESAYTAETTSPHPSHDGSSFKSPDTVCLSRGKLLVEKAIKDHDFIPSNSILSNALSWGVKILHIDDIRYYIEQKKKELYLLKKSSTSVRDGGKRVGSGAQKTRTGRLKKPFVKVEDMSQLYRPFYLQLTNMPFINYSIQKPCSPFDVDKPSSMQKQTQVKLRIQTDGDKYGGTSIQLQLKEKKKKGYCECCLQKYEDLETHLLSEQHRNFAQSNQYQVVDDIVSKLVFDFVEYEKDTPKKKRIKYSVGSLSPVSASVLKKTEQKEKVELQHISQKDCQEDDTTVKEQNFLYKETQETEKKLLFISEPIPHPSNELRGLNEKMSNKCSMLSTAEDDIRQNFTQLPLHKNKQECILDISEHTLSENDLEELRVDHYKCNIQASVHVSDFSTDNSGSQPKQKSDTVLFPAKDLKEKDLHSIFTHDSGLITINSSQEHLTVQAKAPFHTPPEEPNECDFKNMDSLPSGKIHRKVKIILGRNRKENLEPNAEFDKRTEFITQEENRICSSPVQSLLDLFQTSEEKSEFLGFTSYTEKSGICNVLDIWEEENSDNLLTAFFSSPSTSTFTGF
Chain of CDC7/DBF4 (Cell division cycle 7-related protein kinase/Activator of S phase kinase) (O00311 whole entry): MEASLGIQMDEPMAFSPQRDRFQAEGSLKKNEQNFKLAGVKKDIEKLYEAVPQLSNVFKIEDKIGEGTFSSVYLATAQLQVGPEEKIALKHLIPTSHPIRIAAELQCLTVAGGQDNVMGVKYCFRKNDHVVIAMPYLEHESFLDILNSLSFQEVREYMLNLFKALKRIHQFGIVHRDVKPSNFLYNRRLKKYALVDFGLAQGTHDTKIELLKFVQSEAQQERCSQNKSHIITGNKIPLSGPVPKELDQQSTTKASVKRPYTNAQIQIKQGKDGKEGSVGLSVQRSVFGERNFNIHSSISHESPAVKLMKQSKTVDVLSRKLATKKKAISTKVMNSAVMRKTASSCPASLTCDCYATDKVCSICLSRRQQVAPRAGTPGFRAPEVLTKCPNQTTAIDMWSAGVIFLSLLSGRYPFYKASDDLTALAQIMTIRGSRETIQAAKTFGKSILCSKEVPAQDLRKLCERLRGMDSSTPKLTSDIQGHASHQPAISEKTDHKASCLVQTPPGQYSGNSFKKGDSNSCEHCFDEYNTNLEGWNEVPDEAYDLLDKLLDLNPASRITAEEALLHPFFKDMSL

This assay concerns the target CDC7/DBF4 (Cell division cycle 7-related protein kinase/Activator of S phase kinase) (Homo sapiens, UniProt O00311). The assay is described as follows: Inhibition of CDC7/DBF4 using MCM-2 as substrate after 1 hr. The assay is classed as protein-complex assay.
`O=C1CCC2(CCCCC2)c2sc(-c3cn[nH]c3)cc21` registered an IC50 of 1 nM. This lies in the single-digit nanomolar range.

The compound `Nc1cc(-c2cc3c(s2)C2(CCCCC2)CCC3=O)ccn1` had an IC50 of 33 nM. Compared with the last compound, the IC50 is about 33-fold higher.

Compound `O=C1CCC2(CCCCC2)c2sc(-c3ccncc3)cc21` had an IC50 of 9 nM.

In turn, `O=C1NCCc2sc(-c3ccncc3)cc21` gave a half-maximal inhibitory concentration (IC50) of 33 nM.

Compound `O=C1NCC2(CCCCC2)c2sc(-c3cc[nH]n3)cc21` came in with a concentration for half-maximal inhibition (IC50) of 370 nM.

For `Cn1cc(-c2cc3c(s2)C2(CCCCC2)CNC3=O)cn1`, the concentration for half-maximal inhibition (IC50) was > 25000 nM.

Turning to `O=C1NCC2(CCCCC2)c2sc(-c3cn[nH]c3)cc21`, the IC50 came out at 1 nM.

Take `O=C1NCC2(CCCCC2)c2sc(-c3ncnc4[nH]cnc34)cc21`: the IC50 came to 1 nM.

For the compound `CNC(=O)c1cc(-c2cc3c(s2)C2(CCCCC2)CNC3=O)ccn1`, the IC50 is > 25000 nM.

In the case of `CC(=O)Nc1cccc(-c2cc3c(s2)C2(CCCCC2)CNC3=O)c1`, the IC50 is > 25000 nM.

Turning to `CC(=O)Nc1cc(-c2cc3c(s2)C2(CCCCC2)CNC3=O)ccn1`, the IC50 came out at 41 nM.

In turn, `Nc1cc(-c2cc3c(s2)C2(CCCCC2)CNC3=O)ccn1` came in with an IC50 of 8 nM.

`O=C1NCC2(CCCCC2)c2sc(-c3cccnc3)cc21`: the IC50 was found to be 5100 nM.

In the case of `O=C1NCC2(CCCCC2)c2sc(-c3ccncc3)cc21`, the 50% inhibitory concentration (IC50) was < 1 nM.

With `O=C1NCC2(CCCCC2)c2sc(Cl)cc21`, the 50% inhibitory concentration (IC50) is > 25000 nM.
